In publication PMC11237774, “On-target, dual aminopeptidase inhibition provides cross-species antimalarial activity” (mBio, 2024):
Where two headings read alike, the source gives them in different places.

Experiments:
Pb-M17 = Pb-M17 (Plasmodium berghei, UniProt A0A509APA2); assay: Recombinant aminopeptidase fluorescence assay (H-Leu-NHMec); type: biochemical; settings: Pb M17, Morrison equation; read-out: Ki^(app) ± SEM
Description: (§1) Inhibition of aminopeptidase activity assays were performed against nine aminopeptidases: the M1 alanyl and M17 leucyl aminopeptidases from P. falciparum (PfA-M1; PfA-M17), P. vivax (Pv-M1; Pv-M17), and P. berghei (Pb-M1; Pb-M17), and three human M1 homologs: LTA4H (OriGene TP307617), ERAP1 (OriGene TP314469), and ERAP2 (Creative BioMart ERAP2-304H). The Plasmodium enzymes were produced recombinantly as described previously ([16], [17]), and the human recombinant enzymes were purchased from commercial suppliers as indicated.
(§2) The concentration of H-Leu-NHMec in the assay was held constant for each enzyme and ranged from 10 to 100 µM, depending on the enzyme. Reactions were measured at 37°C in white 384-well plates in a total volume of 25 or 50 µL using a spectrofluorimeter (BMG FLUOstar) with excitation at 355 nm and emission at 460 nm. The fluorescence signal was continuously monitored until a final steady-state velocity, v, was obtained. Inhibition constants were calculated from biological triplicates made from three different protein preparations.
(§3) Substrate concentrations were selected to allow sensitive detection of enzyme activity while not exceeding the Km for each enzyme. A compound concentration range was selected to obtain a complete inhibition curve (0%–100 %) in biological triplicate. Where possible, the Ki values were calculated by plotting the initial rates versus inhibitor concentration and fitting to the Morrison equation for tight-binding inhibitors in GraphPad Prism (V.8.4.1; non-linear regression method).

[1] = biological target: human aminopeptidase N (APN or CD13); design: method as in PMID 30537832; settings: cited from earlier work
[2] = In vivo exposure after single oral dosing; settings: male, Swiss outbred, mouse, plasma, 50 mg/kg
Description: This produced a uniform off-white milky suspension of pH 6.0. […] Samples were collected by either submandibular bleed (~120 µL) or terminal cardiac puncture (under inhaled isoflurane anesthesia). Blood samples were centrifuged immediately, and supernatant plasma was removed and stored at −80°C until analysis as described above.

MMP2, 7, 8, 9, and 13 = test system: MMP2, 7, 8, 9, and 13; design: method as in PMID 30537832; settings: tested up to 200 µM; cited from earlier work
[3] = Binding to Albumax medium by ultracentrifugation; type: in vitro ADME
Description: (§4) Human plasma was obtained from the Volunteer Blood Donor Registry (Walter & Eliza Hall Institute, Melbourne, Australia), rat plasma was from male Sprague-Dawley rats (Animal Resource Centre, Perth, Western Australia) and mouse plasma was procured as described above. RPMI-1640 media supplemented with 25 mM HEPES, 2 g/L sodium bicarbonate, and 100 mg/L neomycin were additionally supplemented with 5 […] on the day prior to binding assessment. […] Additional aliquots of spiked matrix were maintained at 37°C for 4.2 h but not centrifuged to serve as controls for stability assessment and to obtain a measure of the total concentration in each matrix. Following centrifugation, aliquots of the protein-free supernatant and the non-centrifuged matrix controls were “matrix matched” by addition of an equal volume of the opposite medium (i.e., either blank buffer or blank matrix) and assayed as described above with comparison to calibration standards prepared in 50% matrix/50% PBS.

[4] = Plasma protein binding by ultracentrifugation; type: in vitro ADME, human; settings: plasma (10% plasma diluted with PBS), pH 7.4
Description: as §4

Pv-M17 = biological target: T1, Pv-M17 (Plasmodium vivax, UniProt A5K3U9); assay: Recombinant aminopeptidase fluorescence assay (H-Leu-NHMec); type: biochemical, P. vivax; settings: Pv M17, Morrison equation; read-out: Ki^(app) ± SEM
T1 construct: made in house
T1 sequence (A5K3U9 74-621): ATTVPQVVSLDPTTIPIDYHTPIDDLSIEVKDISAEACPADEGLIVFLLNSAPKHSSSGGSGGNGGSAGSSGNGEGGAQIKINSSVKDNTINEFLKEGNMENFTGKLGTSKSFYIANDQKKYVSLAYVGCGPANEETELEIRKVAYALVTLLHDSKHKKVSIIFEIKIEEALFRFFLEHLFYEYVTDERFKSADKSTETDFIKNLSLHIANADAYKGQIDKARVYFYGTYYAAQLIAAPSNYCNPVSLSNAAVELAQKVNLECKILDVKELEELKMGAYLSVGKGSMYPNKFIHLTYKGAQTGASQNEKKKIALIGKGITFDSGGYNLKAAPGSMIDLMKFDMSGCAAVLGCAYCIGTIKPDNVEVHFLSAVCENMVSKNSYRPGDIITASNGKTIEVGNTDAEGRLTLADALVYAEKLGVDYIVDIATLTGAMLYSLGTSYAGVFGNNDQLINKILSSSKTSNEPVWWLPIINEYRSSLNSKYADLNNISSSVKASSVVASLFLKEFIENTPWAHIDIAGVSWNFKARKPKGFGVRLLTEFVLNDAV
Description: as §1, §2, §3

Pf3D7 [5] = assay: Parasite killing rate (wash-out) assay; type: cell-based, P. falciparum; settings: washout after 24 or 48 h of treatment, 10× EC50, parasites traversed a trophozoite stage
Description: Assays were performed as previously described ([7]). […] Parasite cultures incubated for 48 h were fed at 24 h with fresh media containing compound. […] Once thawed, cultures were analyzed using SYBR Green I as described above. Parasite viability was determined as a percentage of vehicle-treated controls, and experiments were performed in four biological replicates.

Pf3D7 [6] = assay: Parasite reduction ratio assay; type: cell-based, P. falciparum
Description: Assays were performed as described previously with some alterations ([37]). […] Specifically, media containing compound was placed in wells every 24 h for up 120 h. […] Parasite growth was measured at day 21 using SYBR green I as described above. Fluorescence was used to determine at what treatment day wells became positive for growth when compared with the well before it; greater than double the fluorescence was determined to be a positive well. […] Experiments were performed in two or three biological replicates in quadruplicate.

HDAC9 = biological target: T2, HDAC9 (Homo sapiens, UniProt Q9UKV0); assay: Eurofins Cerep safety pharmacology screening; type: biochemical; settings: read-out: Mean % inhibition (n=2); HDAC9, 10 µM
T2 construct: Eurofins Cerep (contract screen)
T2 sequence (Q9UKV0 whole entry): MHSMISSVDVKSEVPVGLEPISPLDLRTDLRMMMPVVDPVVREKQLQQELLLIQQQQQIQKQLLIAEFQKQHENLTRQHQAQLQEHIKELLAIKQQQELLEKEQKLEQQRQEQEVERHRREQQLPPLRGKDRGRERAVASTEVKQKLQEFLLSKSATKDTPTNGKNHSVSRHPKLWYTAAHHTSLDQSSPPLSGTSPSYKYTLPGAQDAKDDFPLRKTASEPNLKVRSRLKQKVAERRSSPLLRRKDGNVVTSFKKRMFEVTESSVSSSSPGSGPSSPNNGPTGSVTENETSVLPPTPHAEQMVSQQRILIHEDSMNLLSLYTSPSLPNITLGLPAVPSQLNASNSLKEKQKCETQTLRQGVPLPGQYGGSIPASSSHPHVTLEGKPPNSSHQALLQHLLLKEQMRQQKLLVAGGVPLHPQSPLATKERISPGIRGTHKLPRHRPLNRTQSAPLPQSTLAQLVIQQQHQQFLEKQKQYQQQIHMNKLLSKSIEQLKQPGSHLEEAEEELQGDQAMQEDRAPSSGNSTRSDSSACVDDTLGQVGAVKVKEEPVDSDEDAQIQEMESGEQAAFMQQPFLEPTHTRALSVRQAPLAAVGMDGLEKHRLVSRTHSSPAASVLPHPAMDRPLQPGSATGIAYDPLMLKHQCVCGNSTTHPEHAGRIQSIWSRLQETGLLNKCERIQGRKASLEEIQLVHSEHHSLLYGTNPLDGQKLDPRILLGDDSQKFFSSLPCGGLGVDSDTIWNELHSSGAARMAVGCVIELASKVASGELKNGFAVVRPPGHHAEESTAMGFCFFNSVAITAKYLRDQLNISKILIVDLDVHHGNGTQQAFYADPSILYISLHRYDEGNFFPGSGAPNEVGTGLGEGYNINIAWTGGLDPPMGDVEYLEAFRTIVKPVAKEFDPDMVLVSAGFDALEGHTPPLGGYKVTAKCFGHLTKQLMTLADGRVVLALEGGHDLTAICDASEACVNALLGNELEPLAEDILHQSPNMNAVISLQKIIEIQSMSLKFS
From the text: (§5) Results showing any inhibition or stimulation higher than 50% are considered to represent significant effects of the test compounds.

HDAC8 = biological target: T3, HDAC8 (Homo sapiens, UniProt Q9BY41); assay: Eurofins Cerep safety pharmacology screening; type: biochemical; settings: read-out: Mean % inhibition (n=2); HDAC8, 10 µM
T3 construct: Eurofins Cerep (contract screen)
T3 sequence (Q9BY41 whole entry): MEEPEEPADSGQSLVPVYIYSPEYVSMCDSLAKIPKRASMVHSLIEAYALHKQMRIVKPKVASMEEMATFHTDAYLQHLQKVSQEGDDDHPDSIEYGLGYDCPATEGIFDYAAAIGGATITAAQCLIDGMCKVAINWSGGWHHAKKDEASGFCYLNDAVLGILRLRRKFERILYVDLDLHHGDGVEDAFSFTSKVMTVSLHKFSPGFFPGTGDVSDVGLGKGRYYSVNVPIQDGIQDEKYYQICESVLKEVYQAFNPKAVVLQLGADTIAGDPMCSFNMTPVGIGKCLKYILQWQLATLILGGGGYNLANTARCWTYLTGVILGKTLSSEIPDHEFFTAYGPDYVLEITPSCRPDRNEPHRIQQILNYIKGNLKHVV
From the text: as §5

HDAC7 = biological target: T4, HDAC7 (Homo sapiens, UniProt Q8WUI4); assay: Eurofins Cerep safety pharmacology screening; type: biochemical; settings: read-out: Mean % inhibition (n=2); HDAC7, 10 µM
T4 construct: Eurofins Cerep (contract screen)
T4 sequence (Q8WUI4 whole entry): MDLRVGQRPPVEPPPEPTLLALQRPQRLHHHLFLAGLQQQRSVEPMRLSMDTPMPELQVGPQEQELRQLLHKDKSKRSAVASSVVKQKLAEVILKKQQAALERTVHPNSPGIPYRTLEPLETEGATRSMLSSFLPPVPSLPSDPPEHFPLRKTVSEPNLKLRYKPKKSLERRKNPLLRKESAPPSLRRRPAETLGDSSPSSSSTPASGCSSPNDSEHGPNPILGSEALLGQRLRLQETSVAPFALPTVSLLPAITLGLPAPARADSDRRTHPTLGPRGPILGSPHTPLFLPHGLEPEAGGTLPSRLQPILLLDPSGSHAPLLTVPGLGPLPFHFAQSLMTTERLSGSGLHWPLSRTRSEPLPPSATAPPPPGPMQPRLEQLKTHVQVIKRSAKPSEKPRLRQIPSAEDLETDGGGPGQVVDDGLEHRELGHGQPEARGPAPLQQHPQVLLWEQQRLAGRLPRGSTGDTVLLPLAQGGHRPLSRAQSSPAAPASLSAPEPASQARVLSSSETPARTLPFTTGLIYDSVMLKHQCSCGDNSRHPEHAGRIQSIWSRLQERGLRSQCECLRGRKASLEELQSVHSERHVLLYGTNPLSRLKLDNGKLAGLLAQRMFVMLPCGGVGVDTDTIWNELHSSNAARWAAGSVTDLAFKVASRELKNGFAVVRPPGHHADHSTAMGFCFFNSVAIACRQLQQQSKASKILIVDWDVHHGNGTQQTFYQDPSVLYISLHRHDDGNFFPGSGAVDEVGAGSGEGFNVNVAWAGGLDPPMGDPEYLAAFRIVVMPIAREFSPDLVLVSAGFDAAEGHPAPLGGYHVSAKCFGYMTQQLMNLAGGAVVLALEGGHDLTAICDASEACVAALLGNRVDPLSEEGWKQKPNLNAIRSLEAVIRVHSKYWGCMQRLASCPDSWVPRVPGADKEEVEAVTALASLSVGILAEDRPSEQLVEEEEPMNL
From the text: as §5

MMP-2 = biological target: T5, MMP-2 (Homo sapiens, UniProt P08253); assay: Eurofins Cerep safety pharmacology screening; type: biochemical; settings: read-out: Mean % inhibition (n=2); MMP-2, 10 µM
T5 construct: Eurofins Cerep (contract screen)
From the text: as §5

HDAC5 = biological target: T6, HDAC5 (Homo sapiens, UniProt Q9UQL6); assay: Eurofins Cerep safety pharmacology screening; type: biochemical; settings: read-out: Mean % inhibition (n=2); HDAC5, 10 µM
T6 construct: Eurofins Cerep (contract screen)
T6 sequence (Q9UQL6 whole entry): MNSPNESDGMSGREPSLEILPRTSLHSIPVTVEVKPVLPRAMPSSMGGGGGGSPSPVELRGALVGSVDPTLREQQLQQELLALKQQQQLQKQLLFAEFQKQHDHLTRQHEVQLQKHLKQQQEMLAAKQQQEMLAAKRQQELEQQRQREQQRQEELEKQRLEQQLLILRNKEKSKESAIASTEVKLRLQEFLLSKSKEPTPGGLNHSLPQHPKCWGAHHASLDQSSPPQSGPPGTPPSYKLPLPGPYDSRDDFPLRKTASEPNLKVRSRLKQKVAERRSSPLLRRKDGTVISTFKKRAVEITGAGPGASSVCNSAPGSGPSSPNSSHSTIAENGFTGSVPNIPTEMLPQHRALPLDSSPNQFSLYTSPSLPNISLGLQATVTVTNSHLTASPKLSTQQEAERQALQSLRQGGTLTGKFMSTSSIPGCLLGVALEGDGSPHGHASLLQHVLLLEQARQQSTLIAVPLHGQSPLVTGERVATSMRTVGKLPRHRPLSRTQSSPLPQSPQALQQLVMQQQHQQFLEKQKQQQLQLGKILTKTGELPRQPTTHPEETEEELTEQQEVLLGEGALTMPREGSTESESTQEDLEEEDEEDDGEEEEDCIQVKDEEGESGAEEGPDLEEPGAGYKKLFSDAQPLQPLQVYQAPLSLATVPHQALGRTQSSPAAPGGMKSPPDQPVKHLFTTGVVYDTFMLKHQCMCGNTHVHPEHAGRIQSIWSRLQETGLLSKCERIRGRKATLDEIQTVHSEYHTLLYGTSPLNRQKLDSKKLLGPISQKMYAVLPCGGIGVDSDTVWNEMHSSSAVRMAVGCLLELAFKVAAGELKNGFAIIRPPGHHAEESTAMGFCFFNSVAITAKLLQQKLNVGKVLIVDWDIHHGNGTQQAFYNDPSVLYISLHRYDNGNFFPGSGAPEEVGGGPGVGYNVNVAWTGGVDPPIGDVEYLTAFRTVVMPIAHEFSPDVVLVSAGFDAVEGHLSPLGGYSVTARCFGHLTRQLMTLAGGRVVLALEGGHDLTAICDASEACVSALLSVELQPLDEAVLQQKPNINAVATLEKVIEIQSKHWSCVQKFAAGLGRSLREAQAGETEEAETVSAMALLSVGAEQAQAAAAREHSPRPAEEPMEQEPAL
From the text: as §5

MMP-7 = biological target: T7, MMP-7 (Homo sapiens, UniProt P09237); assay: Eurofins Cerep safety pharmacology screening; type: biochemical; settings: read-out: Mean % inhibition (n=2); MMP-7, 10 µM
T7 construct: Eurofins Cerep (contract screen)
From the text: as §5

HDAC1 = biological target: T8, HDAC1 (Homo sapiens, UniProt Q13547); assay: Eurofins Cerep safety pharmacology screening; type: biochemical; settings: read-out: Mean % inhibition (n=2); HDAC1, 10 µM
T8 construct: Eurofins Cerep (contract screen)
T8 sequence (Q13547 whole entry): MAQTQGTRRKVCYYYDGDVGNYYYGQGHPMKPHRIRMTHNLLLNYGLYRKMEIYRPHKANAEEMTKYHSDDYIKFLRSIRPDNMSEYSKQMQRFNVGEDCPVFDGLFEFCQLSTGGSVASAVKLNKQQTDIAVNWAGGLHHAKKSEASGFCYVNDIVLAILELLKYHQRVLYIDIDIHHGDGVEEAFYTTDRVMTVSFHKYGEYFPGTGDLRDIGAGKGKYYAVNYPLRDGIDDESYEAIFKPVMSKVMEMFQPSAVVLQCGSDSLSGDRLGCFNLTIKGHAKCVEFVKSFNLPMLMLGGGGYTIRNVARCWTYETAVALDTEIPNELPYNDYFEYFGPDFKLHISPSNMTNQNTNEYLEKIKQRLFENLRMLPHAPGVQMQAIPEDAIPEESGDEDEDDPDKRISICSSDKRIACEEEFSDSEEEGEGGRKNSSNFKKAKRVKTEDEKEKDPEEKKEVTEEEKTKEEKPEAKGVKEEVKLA
From the text: as §5

MMP-14 = biological target: T9, MMP-14 (Homo sapiens, UniProt P50281); assay: Eurofins Cerep safety pharmacology screening; type: biochemical; settings: read-out: Mean % inhibition (n=2); MMP-14, 10 µM
T9 construct: Eurofins Cerep (contract screen)
From the text: as §5

Chain of Pb-M17 (A0A509APA2 entry or part of it): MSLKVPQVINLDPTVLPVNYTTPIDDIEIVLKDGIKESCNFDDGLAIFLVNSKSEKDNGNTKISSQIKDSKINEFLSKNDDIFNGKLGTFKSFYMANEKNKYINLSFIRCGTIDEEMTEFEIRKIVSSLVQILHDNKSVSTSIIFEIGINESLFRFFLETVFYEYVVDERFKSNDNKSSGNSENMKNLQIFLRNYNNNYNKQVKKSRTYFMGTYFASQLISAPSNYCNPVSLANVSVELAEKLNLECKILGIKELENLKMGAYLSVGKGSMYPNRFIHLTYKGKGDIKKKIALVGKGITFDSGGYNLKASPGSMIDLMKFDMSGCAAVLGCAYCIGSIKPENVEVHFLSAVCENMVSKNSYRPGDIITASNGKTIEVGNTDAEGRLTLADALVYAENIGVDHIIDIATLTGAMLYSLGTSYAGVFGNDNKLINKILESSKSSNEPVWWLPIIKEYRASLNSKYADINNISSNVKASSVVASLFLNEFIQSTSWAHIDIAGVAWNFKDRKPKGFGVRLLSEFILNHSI

CC(C)(C)CC(=O)NC(C(=O)NO)c1ccc(-c2cc(F)c(F)c(F)c2)cc1 (stereo not shown) [MMV1557817, N-(2-(hydroxyamino)−2-oxo-1-(3′,4′,5′-trifluoro-[1,1′-biphenyl]-4-yl)ethyl)-3,3-dimethylbutanamide]
Ki (Pb-M17): 130 ± 7 nM | Ki [1]: 300 nM | AUC(0-inf) [2]: 15.2 µM·h | AUC(0-t) [2]: 14.9 µM·h | Cmax [2]: 5.2 µM | Tmax [2]: 0.5 h | half-life [2]: 4.3 h | off-target inhibition (MMP2, 7, 8, 9, and 13): limited off-target inhibitory affects | unbound in Albumax medium ([3]; Albumax medium): 15.5% | Albumax media binding ([3]; Albumax medium used for in vitro activity assessment): 84.5% | fraction unbound at 4.2 h ([4]; Sprague-Dawley (rat plasma), human, summary in text over the plasma species tested, read-out: bound to plasma proteins): 0.01 to 0.02 | fraction unbound at 4.2 h ([4]; human plasma, read-out: Plasma protein binding (converted)): 0.012 | Ki (Pv-M17): 208 ± 20 nM | parasite survival (Pf3D7 [5]): less than 10% | 99.9% PCT (Pf3D7 [6]; Pf3D7, 10× EC50): 86 h | Lag phase (Pf3D7 [6]; Pf3D7, 10× EC50): 72 h | Log (PRR) (Pf3D7 [6]; Pf3D7, 10× EC50, over one cycle): 2.2 ± 0.2 | inhibition at 10 µM (HDAC9): -3.6% | inhibition at 10 µM (HDAC8): 6.3% | inhibition at 10 µM (HDAC7): 7.7% | inhibition at 10 µM (MMP-2): 39.8% | inhibition at 10 µM (HDAC5): -2.8% | inhibition at 10 µM (MMP-7): -6.7% | inhibition at 10 µM (HDAC1): 2.8% | inhibition at 10 µM (MMP-14): 24.1%
